Measurements as given in US20100040734A1, “Cacao Husk-Derived Water-Soluble, Dietary Fiber, Process For Its Production, Foods and Beverages Containing It And Methods For Their Preparation” (FUJI OIL COMPANY, LIMITED, priority 2000, published 2010).

Assays:
Assay in all cases: microbiostatic property by turbidity in standard liquid medium
Assay type in all cases: cell-based
Conditions in all cases: 35° C.
Escherichia coli = test system: Escherichia coli
Experimental: […] The turbidity was determined by measuring the absorbance at a wavelength of 610 nm (the spectrophotometer used was PTL-396S by JASCO Co., Ltd.), and the units for the turbidity were based on JIS1010.

Aspergillus oryzae = test system: Aspergillus oryzae
Excerpt: (§1) For evaluation of the shelf-life extending property (microbiostatic property), there was used a standard liquid medium (pH 7.2) containing the cacao husk-derived water-soluble dietary fiber of the invention at 0%, 0.5% or 1.0% with suitable amounts of shelf stability increasing substances, and using Escherichia coli, Aspergilius oryzae and Saccharomyces cerevisiae as the target strains. […] As the turbidity of the medium increases with growth of the cells, a test substance with a microbiostatic property will inhibit the cell growth and result in less turbidity. The turbidity was determined by measuring the absorbance at a wavelength of 610 nm (the spectrophotometer used was PTL-396S by JASCO Co., Ltd.), and the units for the turbidity were based on JIS1010.

Saccharomyces cerevisiae = test system: Saccharomyces cerevisiae
Excerpt: as §1

Compound: CCO [Ethanol]
- turbidity (Escherichia coli; added at 0.05%, days stored 1): 104 unit
- turbidity (Escherichia coli; added at 0.05%, days stored 2): 441 unit
- turbidity (Escherichia coli; added at 0.1%, days stored 1): 112 unit
- turbidity (Escherichia coli; added at 0.1%, days stored 2): 382 unit
- turbidity (Escherichia coli; added at 0.1%, days stored 3): 455 unit
- turbidity (Aspergillus oryzae; added at 0.05%, days stored 1): 17 unit
- turbidity (Aspergillus oryzae; added at 0.05%, days stored 2): 128 unit
- turbidity (Aspergillus oryzae; added at 0.05%, days stored 3): 328 unit
- turbidity (Aspergillus oryzae; added at 0.1%, days stored 1): 10 unit
- turbidity (Aspergillus oryzae; added at 0.1%, days stored 2): 112 unit
- turbidity (Aspergillus oryzae; added at 0.1%, days stored 3): 251 unit
- turbidity (Aspergillus oryzae; added at 0.1%, days stored 4): 475 unit
- turbidity (Saccharomyces cerevisiae; added at 0.05%, days stored 1): 59 unit
- turbidity (Saccharomyces cerevisiae; added at 0.05%, days stored 2): 251 unit
- turbidity (Saccharomyces cerevisiae; added at 0.05%, days stored 3): 487 unit
- turbidity (Saccharomyces cerevisiae; added at 0.1%, days stored 1): 36 unit
- turbidity (Saccharomyces cerevisiae; added at 0.1%, days stored 2): 182 unit
- turbidity (Saccharomyces cerevisiae; added at 0.1%, days stored 3): 411 unit

Compound: O=C1O[C@H]([C@@H](O)CO)C([O-])=C1O.[Na+] [Na ascorbate]
- turbidity (Escherichia coli; added at 0.1%, days stored 1): 115 unit
- turbidity (Escherichia coli; added at 0.1%, days stored 2): 402 unit
- turbidity (Escherichia coli; added at 0.5%, days stored 1): 18 unit
- turbidity (Escherichia coli; added at 0.5%, days stored 2): 211 unit
- turbidity (Escherichia coli; added at 0.5%, days stored 3): 315 unit
- turbidity (Escherichia coli; added at 0.5%, days stored 4): 452 unit
- turbidity (Aspergillus oryzae; added at 0.1%, days stored 1): 107 unit
- turbidity (Aspergillus oryzae; added at 0.1%, days stored 2): 370 unit
- turbidity (Aspergillus oryzae; added at 0.5%, days stored 1): 58 unit
- turbidity (Aspergillus oryzae; added at 0.5%, days stored 2): 178 unit
- turbidity (Aspergillus oryzae; added at 0.5%, days stored 3): 422 unit
- turbidity (Saccharomyces cerevisiae; added at 0.1%, days stored 1): 122 unit
- turbidity (Saccharomyces cerevisiae; added at 0.1%, days stored 2): 391 unit
- turbidity (Saccharomyces cerevisiae; added at 0.5%, days stored 1): 76 unit
- turbidity (Saccharomyces cerevisiae; added at 0.5%, days stored 2): 251 unit
- turbidity (Saccharomyces cerevisiae; added at 0.5%, days stored 3): 433 unit

Compound: [Cl-].[Na+] [Salt]
- turbidity (Escherichia coli; added at 1.0%, days stored 1): 141 unit
- turbidity (Escherichia coli; added at 1.0%, days stored 2): 524 unit
- turbidity (Escherichia coli; added at 2.0%, days stored 1): 31 unit
- turbidity (Escherichia coli; added at 2.0%, days stored 2): 353 unit
- turbidity (Aspergillus oryzae; added at 1.0%, days stored 1): 99 unit
- turbidity (Aspergillus oryzae; added at 1.0%, days stored 2): 487 unit
- turbidity (Aspergillus oryzae; added at 2.0%, days stored 1): 68 unit
- turbidity (Aspergillus oryzae; added at 2.0%, days stored 2): 272 unit
- turbidity (Aspergillus oryzae; added at 2.0%, days stored 3): 429 unit
- turbidity (Saccharomyces cerevisiae; added at 1.0%, days stored 1): 112 unit
- turbidity (Saccharomyces cerevisiae; added at 1.0%, days stored 2): 425 unit
- turbidity (Saccharomyces cerevisiae; added at 2.0%, days stored 1): 24 unit
- turbidity (Saccharomyces cerevisiae; added at 2.0%, days stored 2): 377 unit

Compound: Glycerin fatty acid ester
- turbidity (Escherichia coli; added at 0.01%, days stored 1): 113 unit
- turbidity (Escherichia coli; added at 0.01%, days stored 2): 415 unit
- turbidity (Escherichia coli; added at 0.05%, days stored 1): 47 unit
- turbidity (Escherichia coli; added at 0.05%, days stored 2): 196 unit
- turbidity (Escherichia coli; added at 0.05%, days stored 3): 305 unit
- turbidity (Escherichia coli; added at 0.05%, days stored 4): 481 unit
- turbidity (Aspergillus oryzae; added at 0.01%, days stored 1): 86 unit
- turbidity (Aspergillus oryzae; added at 0.01%, days stored 2): 417 unit
- turbidity (Aspergillus oryzae; added at 0.05%, days stored 1): 53 unit
- turbidity (Aspergillus oryzae; added at 0.05%, days stored 2): 199 unit
- turbidity (Aspergillus oryzae; added at 0.05%, days stored 3): 418 unit
- turbidity (Saccharomyces cerevisiae; added at 0.01%, days stored 1): 79 unit
- turbidity (Saccharomyces cerevisiae; added at 0.01%, days stored 2): 281 unit
- turbidity (Saccharomyces cerevisiae; added at 0.01%, days stored 3): 485 unit
- turbidity (Saccharomyces cerevisiae; added at 0.05%, days stored 1): 38 unit
- turbidity (Saccharomyces cerevisiae; added at 0.05%, days stored 2): 107 unit
- turbidity (Saccharomyces cerevisiae; added at 0.05%, days stored 3): 375 unit
